{
  "source": "paper PMC8803738",
  "about": "“Impact of the mouse model and molar amount of injected ligand on the tissue distribution profile of PSMA radioligands” (European Journal of Nuclear Medicine and Molecular Imaging, 2021)",
  "key": {"[1]": {"tested_on": "PC-3 PIP/flu tumor-bearing mice", "details": "PC-3 PIP model, 1.0 nmol, ref Deberle et al. [21], cited from earlier work"}},
  "note": "Read-outs that look alike come from different tables or passages of the source.",
  "data": [
    {"smiles": "CC(C)Cc1ccc(C(C)C(=O)NC(CCN)C(=O)NCCCCC(NC(=O)CN2CCN(CC(=O)O)CCN(CC(=O)O)CCN(CC(=O)O)CC2)C(=O)NCC2CCC(C(=O)NC(Cc3ccc4ccccc4c3)C(=O)NCCCCC(NC(=O)NC(CCC(=O)O)C(=O)O)C(=O)O)CC2)cc1", "note": "(stereo not drawn) [[^177Lu]Lu-Ibu-DAB-PSMA, metal not drawn]", "values": [
      {"measurement": "Absolute amount of internalized radioligand", "setting": "PC-3 PIP tumor cells; 0.00075 µM", "result": "14–21 % of total added activity"},
      {"measurement": "Internalized fraction", "setting": "PC-3 PIP tumor cells; 4 h", "result": "23–28 % of total uptake"},
      {"measurement": "Cell uptake", "setting": "PC-3 PIP tumor cells; 4 h, 0.5 µM", "result": "≤ 2", "unit": "%"},
      {"measurement": "Absolute amount of internalized radioligand", "setting": "LNCaP tumor cells; 0.00075 µM", "result": "14–21 % of total added activity"},
      {"measurement": "Internalized fraction", "setting": "LNCaP tumor cells; 4 h", "result": "> 60 % of total uptake"},
      {"measurement": "Cell uptake", "setting": "LNCaP tumor cells; 4 h, 0.00075 µM", "result": "~ 34%"},
      {"measurement": "Cell uptake", "setting": "LNCaP tumor cells; 4 h, 0.0075 µM", "result": "~ 16%"},
      {"measurement": "Cell uptake", "setting": "LNCaP tumor cells; 4 h, 0.025 µM", "result": "~ 6%"},
      {"measurement": "Cell uptake", "setting": "LNCaP tumor cells; 4 h, 0.5 µM", "result": "< 1", "unit": "%"},
      {"measurement": "Tissue distribution, Blood", "setting": "[1]; 4 h p.i.", "result": "3.7 ± 0.5", "unit": "% IA/g"},
      {"measurement": "Tissue distribution, Bone", "setting": "[1]; 4 h p.i.", "result": "0.62 ± 0.08", "unit": "% IA/g"},
      {"measurement": "Tissue distribution, Heart", "setting": "[1]; 4 h p.i.", "result": "1.3 ± 0.1", "unit": "% IA/g"},
      {"measurement": "Tissue distribution, Intestines", "setting": "[1]; 4 h p.i.", "result": "0.71 ± 0.05", "unit": "% IA/g"},
      {"measurement": "Tissue distribution, Kidneys", "setting": "[1]; 4 h p.i.", "result": "19 ± 2", "unit": "% IA/g"},
      {"measurement": "Tissue distribution, Liver", "setting": "[1]; 4 h p.i.", "result": "1.5 ± 0.1", "unit": "% IA/g"},
      {"measurement": "Tissue distribution, Lung", "setting": "[1]; 4 h p.i.", "result": "2.4 ± 0.3", "unit": "% IA/g"},
      {"measurement": "Tissue distribution, Muscle", "setting": "[1]; 4 h p.i.", "result": "0.54 ± 0.09", "unit": "% IA/g"},
      {"measurement": "Tissue distribution, PC-3 PIP tumor", "setting": "[1]; 4 h p.i.", "result": "66 ± 11", "unit": "% IA/g"},
      {"measurement": "Tissue distribution, PC-3 flu tumor", "setting": "[1]; 4 h p.i.", "result": "1.2 ± 0.3", "unit": "% IA/g"},
      {"measurement": "Tissue distribution, Salivary glands", "setting": "[1]; 4 h p.i.", "result": "0.86 ± 0.38", "unit": "% IA/g"},
      {"measurement": "Tissue distribution, Spleen", "setting": "[1]; 4 h p.i.", "result": "1.1 ± 0.1", "unit": "% IA/g"},
      {"measurement": "Tissue distribution, Stomach", "setting": "[1]; 4 h p.i.", "result": "0.62 ± 0.12", "unit": "% IA/g"},
      {"measurement": "Tumor-to-blood ratio", "setting": "[1]; 4 h p.i.", "result": "18 ± 3"},
      {"measurement": "Tumor-to-kidney ratio", "setting": "[1]; 4 h p.i.", "result": "3.0 ± 0.5"},
      {"measurement": "Tumor-to-liver ratio", "setting": "[1]; 4 h p.i.", "result": "45 ± 8"},
      {"measurement": "Tissue distribution, Blood", "setting": "[1]; 24 h p.i.", "result": "0.16 ± 0.02", "unit": "% IA/g"},
      {"measurement": "Tissue distribution, Bone", "setting": "[1]; 24 h p.i.", "result": "< 0.10", "unit": "% IA/g"},
      {"measurement": "Tissue distribution, Heart", "setting": "[1]; 24 h p.i.", "result": "0.10 ± 0.01", "unit": "% IA/g"},
      {"measurement": "Tissue distribution, Intestines", "setting": "[1]; 24 h p.i.", "result": "0.11 ± 0.03", "unit": "% IA/g"},
      {"measurement": "Tissue distribution, Kidneys", "setting": "[1]; 24 h p.i.", "result": "6.0 ± 0.7", "unit": "% IA/g"},
      {"measurement": "Tissue distribution, Liver", "setting": "[1]; 24 h p.i.", "result": "0.56 ± 0.10", "unit": "% IA/g"},
      {"measurement": "Tissue distribution, Lung", "setting": "[1]; 24 h p.i.", "result": "0.21 ± 0.03", "unit": "% IA/g"},
      {"measurement": "Tissue distribution, Muscle", "setting": "[1]; 24 h p.i.", "result": "0.05 ± 0.01", "unit": "% IA/g"},
      {"measurement": "Tissue distribution, PC-3 PIP tumor", "setting": "[1]; 24 h p.i.", "result": "52 ± 3", "unit": "% IA/g"},
      {"measurement": "Tissue distribution, PC-3 flu tumor", "setting": "[1]; 24 h p.i.", "result": "0.17 ± 0.01", "unit": "% IA/g"},
      {"measurement": "Tissue distribution, Salivary glands", "setting": "[1]; 24 h p.i.", "result": "0.56 ± 0.37", "unit": "% IA/g"},
      {"measurement": "Tissue distribution, Spleen", "setting": "[1]; 24 h p.i.", "result": "0.32 ± 0.03", "unit": "% IA/g"},
      {"measurement": "Tissue distribution, Stomach", "setting": "[1]; 24 h p.i.", "result": "0.18 ± 0.13", "unit": "% IA/g"},
      {"measurement": "Tumor-to-blood ratio", "setting": "[1]; 24 h p.i.", "result": "337 ± 40"},
      {"measurement": "Tumor-to-kidney ratio", "setting": "[1]; 24 h p.i.", "result": "8.9 ± 1.0"},
      {"measurement": "Tumor-to-liver ratio", "setting": "[1]; 24 h p.i.", "result": "98 ± 21"},
      {"measurement": "Tissue distribution, Blood", "setting": "[1]; 48 h p.i.", "result": "0.10 ± 0.04", "unit": "% IA/g"},
      {"measurement": "Tissue distribution, Bone", "setting": "[1]; 48 h p.i.", "result": "< 0.10", "unit": "% IA/g"},
      {"measurement": "Tissue distribution, Heart", "setting": "[1]; 48 h p.i.", "result": "< 0.10", "unit": "% IA/g"},
      {"measurement": "Tissue distribution, Intestines", "setting": "[1]; 48 h p.i.", "result": "< 0.10", "unit": "% IA/g"},
      {"measurement": "Tissue distribution, Kidneys", "setting": "[1]; 48 h p.i.", "result": "4.1 ± 0.8", "unit": "% IA/g"},
      {"measurement": "Tissue distribution, Liver", "setting": "[1]; 48 h p.i.", "result": "0.49 ± 0.08", "unit": "% IA/g"},
      {"measurement": "Tissue distribution, Lung", "setting": "[1]; 48 h p.i.", "result": "0.14 ± 0.04", "unit": "% IA/g"},
      {"measurement": "Tissue distribution, Muscle", "setting": "[1]; 48 h p.i.", "result": "< 0.10", "unit": "% IA/g"},
      {"measurement": "Tissue distribution, PC-3 PIP tumor", "setting": "[1]; 48 h p.i.", "result": "36 ± 10", "unit": "% IA/g"},
      {"measurement": "Tissue distribution, PC-3 flu tumor", "setting": "[1]; 48 h p.i.", "result": "0.15 ± 0.04", "unit": "% IA/g"},
      {"measurement": "Tissue distribution, Salivary glands", "setting": "[1]; 48 h p.i.", "result": "< 0.10", "unit": "% IA/g"},
      {"measurement": "Tissue distribution, Spleen", "setting": "[1]; 48 h p.i.", "result": "0.26 ± 0.08", "unit": "% IA/g"},
      {"measurement": "Tissue distribution, Stomach", "setting": "[1]; 48 h p.i.", "result": "< 0.10", "unit": "% IA/g"},
      {"measurement": "Tumor-to-blood ratio", "setting": "[1]; 48 h p.i.", "result": "364 ± 67"},
      {"measurement": "Tumor-to-kidney ratio", "setting": "[1]; 48 h p.i.", "result": "8.7 ± 1.8"},
      {"measurement": "Tumor-to-liver ratio", "setting": "[1]; 48 h p.i.", "result": "72 ± 11"}
    ]}
  ]
}
